Test results as given in paper PMC6922598, “De novo design of a homo-trimeric amantadine-binding protein” (eLife, 2019).

Target: T1, ABP (amantadine-binding protein)
T1 construct: de novo designed homo-trimer; GSHMG//[…]
Assay: X-ray crystal structure ([…] Å) and neutron structure ([…] Å) of the complex; NMR titration with TITAN line shape fitting (Kd)
Design: species or system synthetic construct

Compound `NC12CC3CC(CC(C3)C1)C2` [amantadine] has a Kd of 24.1 ± 2.7 µM.
